“And” between values parts separate entries of the source, which are not always exact repeats. Equal values may be shown once. Inconclusive results and toxic doses are left out. Rule for the calls: active = survival T/C of 150% or more; inactive = T/C below 125% in these data.
Test system: BDF1 mice, B16 melanoma ip, median survival T/C
Experiment: NCI In Vivo Anticancer Drug Screen. Data for tumor model B16 Melanoma (intraperitoneal) in B6D2F1 (BDF1) mice
Conditions: endpoint: median survival time, higher = longer survival
Outline: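 Transplantable tumor model; survival or tumor size measured; reported as T/C, treated over vehicle control.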

[1] = dose: 25.0 mg/kg/injection, schedule: Q01DX009 (ip), vehicle: Klucel (hydroxypropylcellulose) (HPC)
[2] = dose: 50.0 mg/kg/injection, schedule: Q01DX009 (ip), vehicle: Klucel (hydroxypropylcellulose) (HPC)
[3] = dose: 100.0 mg/kg/injection, schedule: Q01DX009 (ip), vehicle: Klucel (hydroxypropylcellulose) (HPC)
[4] = dose: 50.0 mg/kg/injection, schedule: Q01DX009 (ip), vehicle: saline with Tween-80
[5] = dose: 100.0 mg/kg/injection, schedule: Q01DX009 (ip), vehicle: saline with Tween-80
[6] = dose: 200.0 mg/kg/injection, schedule: Q01DX009 (ip), vehicle: saline with Tween-80
[7] = dose: 25.0 mg/kg/injection, schedule: Q01DX009 (ip), vehicle: saline with Tween-80
[8] = dose: 12.5 mg/kg/injection, schedule: Q01DX009 (ip), vehicle: saline with Tween-80

Measured: T/C

COC(=O)C1C2CC3c4[nH]c5ccc(OC)cc5c4CCN3CC2CC(OC(=O)c2cc(OC)c(OC)c(OC)c2)C1OC (configuration not stated)
inactive: dose: 0.17 mg/kg/injection, schedule: Q01DX009 (ip), vehicle: Klucel (hydroxypropylcellulose) (HPC) 88 % of control | dose: 0.35 mg/kg/injection, schedule: Q01DX009 (ip), vehicle: Klucel (hydroxypropylcellulose) (HPC) 110 % of control | dose: 1.42 mg/kg/injection, schedule: Q01DX009 (ip), vehicle: Klucel (hydroxypropylcellulose) (HPC) 91 % of control | dose: 2.85 mg/kg/injection, schedule: Q01DX009 (ip), vehicle: Klucel (hydroxypropylcellulose) (HPC) 89 % of control | dose: 22.81 mg/kg/injection, schedule: Q01DX009 (ip), vehicle: Klucel (hydroxypropylcellulose) (HPC) 100 % of control | dose: 45.62 mg/kg/injection, schedule: Q01DX009 (ip), vehicle: Klucel (hydroxypropylcellulose) (HPC) 98 % of control

CCCCOC(=O)C(C)OC(=O)CCC (configuration not stated)
inactive: [1] 112 % of control | [2] 108 % of control | [3] 104 % of control | dose: 200.0 mg/kg/injection, schedule: Q01DX009 (ip), vehicle: Klucel (hydroxypropylcellulose) (HPC) 122 % of control

CCOC(=O)C(C)(C)Oc1ccc(Cl)cc1
inactive: [4] 97 % of control and 113 % of control | [5] 88 % of control and 113 % of control | [6] 102 % of control

C=CCOCC(O)CN(CC)c1ccccc1 (configuration not stated)
inactive: dose: 75.0 mg/kg/injection, schedule: Q04DX003 (ip), vehicle: Klucel (hydroxypropylcellulose) (HPC) 89 % of control | dose: 150.0 mg/kg/injection, schedule: Q04DX003 (ip), vehicle: Klucel (hydroxypropylcellulose) (HPC) 89 % of control | dose: 300.0 mg/kg/injection, schedule: Q04DX003 (ip), vehicle: Klucel (hydroxypropylcellulose) (HPC) 98 % of control

COc1ccc(N2CSC(=S)N(c3ccc(OC)cc3)C2)cc1
inactive: dose: 8.0 mg/kg/injection, schedule: Q01DX009 (ip), vehicle: saline with Tween-80 97 % of control | dose: 12.0 mg/kg/injection, schedule: Q01DX009 (ip), vehicle: saline with Tween-80 90 % of control | dose: 18.0 mg/kg/injection, schedule: Q01DX009 (ip), vehicle: saline with Tween-80 90 % of control | [1] 102 % of control | [7] 112 % of control | [2] 94 % of control | [4] 115 % of control | [3] 114 % of control

CCCCCCCCCCCCc1ccc(CS)cc1
inactive: dose: 100.0 mg/kg/injection, schedule: Q01DX009 (ip), vehicle: saline 92 % of control | dose: 200.0 mg/kg/injection, schedule: Q01DX009 (ip), vehicle: saline 89 % of control

COc1cccc2c1C(=O)c1c(O)c3c(c(O)c1C2=O)C[C@@](O)(/C(CO)=N/NC(=O)c1ccc(Cl)c(Cl)c1)C[C@@H]3OC1CC(NC(=S)Nc2ccc(F)cc2)C(O)C(C)O1 (some centres not stated)
inactive: dose: 0.4 mg/kg/injection, schedule: Q01DX009 (ip), vehicle: water 101 % of control | dose: 0.8 mg/kg/injection, schedule: Q01DX009 (ip), vehicle: water 112 % of control | dose: 1.6 mg/kg/injection, schedule: Q01DX009 (ip), vehicle: water 111 % of control | dose: 3.2 mg/kg/injection, schedule: Q01DX009 (ip), vehicle: water 106 % of control

Cc1cc(Cl)ccc1NC(=O)Nc1ccc(Cl)c(Cl)c1
inactive: dose: 50.0 mg/kg/injection, schedule: Q04DX003 (ip), vehicle: Klucel (hydroxypropylcellulose) (HPC) 90 % of control | dose: 100.0 mg/kg/injection, schedule: Q04DX003 (ip), vehicle: Klucel (hydroxypropylcellulose) (HPC) 95 % of control

ClC1CC[N-]CC1.ClC1CC[N-]CC1.O=C(O)CC(=O)O.[Pt+2]
inactive: [8] 96 % of control | [7] 95 % of control | [4] 96 % of control | [5] 95 % of control | [6] 104 % of control

O=C(c1ccccc1)C1NC1c1ccccc1 (configuration not stated)
inactive: dose: 20.0 mg/kg/injection, schedule: Q01DX009 (ip), vehicle: Klucel (hydroxypropylcellulose) (HPC) 100 % of control | dose: 40.0 mg/kg/injection, schedule: Q01DX009 (ip), vehicle: Klucel (hydroxypropylcellulose) (HPC) 97 % of control | dose: 80.0 mg/kg/injection, schedule: Q01DX009 (ip), vehicle: Klucel (hydroxypropylcellulose) (HPC) 94 % of control

CCC[CH2][Sn]1([CH2]CCC)[O]C(=O)C[S]1
inactive: dose: 1.0 mg/kg/injection, schedule: Q01DX009 (ip), vehicle: saline with Tween-80 103 % of control | dose: 2.0 mg/kg/injection, schedule: Q01DX009 (ip), vehicle: saline with Tween-80 101 % of control

C1=Cc2ccccc2/C1=C/c1cccc(/C=C2\C=Cc3ccccc32)c1
inactive: dose: 6.25 mg/kg/injection, schedule: Q01DX009 (ip), vehicle: saline with Tween-80 100 % of control | [8] 86 % of control

Cc1cc(=O)[nH]c(N/N=C/c2ccccc2)n1
inactive: dose: 100.0 mg/kg/injection, schedule: Q04DX003 (ip), vehicle: gum acacia 93 % of control | dose: 200.0 mg/kg/injection, schedule: Q04DX003 (ip), vehicle: gum acacia 88 % of control | dose: 400.0 mg/kg/injection, schedule: Q04DX003 (ip), vehicle: gum acacia 88 % of control

From PubChem BioAssay AID192 (DTP/NCI, 2004)
